Common to all, as to test: DTP human tumour cell line panel, 48 h
Assay [1] concerns HCT-116 colon.
Assay [2] concerns MOLT-4 leukemia.
The subject of assay [3] is NCI-H226 lung.
Assay [4] relates to NCI-H23 lung.
Assay [5] relates to NCI/ADR-RES ovarian.
Assay [6] has as its system OVCAR-3 ovarian.
The subject of assay [7] is OVCAR-5 ovarian.
Assay [8] has as its system PC-3 prostate.
Assay [9] has as its system RPMI-8226 leukemia.
The test system of assay [10] is SK-MEL-28 melanoma.
The subject of assay [11] is SK-MEL-5 melanoma.
The test system of assay [12] is SN12C renal.
Assay [13] deals with SNB-19 CNS.
For assay [14], the system named is U251 CNS.
In assay [15] the test system is HOP-92 NSCLC.
For assay [16], the system named is NCI-H522 lung.
For assay [17], the system named is RXF 393 renal.
In assay [18] the test system is T-47D breast.

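48-hour exposure; five concentrations; linearly interpolated endpoints. TGI: total growth inhibition.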 A value given as a limit tells only on which side of the number the result lay.

A word on the TGI: it is the concentration giving total growth inhibition.

On to `CC(C)CC1[C@@H](OCc2ccccc2)COS(=O)N1Cc1ccccc1` (some centres undefined), for which the concentration for total growth inhibition (TGI) in assay [1], in assay [2], in assay [3], in assay [4], in assay [5] and in [6] was > 100 µM each time. Besides, the TGI in assay [7] is > 100 µM; in assay [8] it was > 100 µM; in [9] it was 51 µM; in assay [10] it was > 100 µM; in [11], > 100 µM; in assay [12] it was > 100 µM. Further, the TGI in assay [13] and in [14] was > 100 µM throughout.

Take `C[C@]12CCC(=O)C=C1CC[C@@H]1C2CC[C@]2(C)c3nn(-c4ccc(F)cc4)nc3CC12` (some centres undefined): the TGI in assay [1], in [15], in [2], in assay [3], in assay [4] and in [16] was > 100 µM throughout. In addition, the TGI in assay [6], in assay [7], in assay [8], in [17], in [10] and in assay [11] was > 100 µM each time. The total growth inhibition concentration (TGI) in assay [12], in assay [13], in assay [18] and in assay [14] was > 100 µM throughout.

Consider `Cc1cccc2c1[C@]13OC(C)[C@]4(C)CC5OC(=O)[C@@]1(C)[C@@H]5[C@]34C(=O)O2` (some centres undefined), for which the total growth inhibition concentration (TGI) in assay [1], in assay [2], in assay [3], in assay [4], in assay [16] and in assay [5] was > 100 µM throughout. For the same compound, the TGI in assay [6], in assay [7], in assay [8], in [9], in [10] and in assay [11] was > 100 µM throughout. Further, the total growth inhibition concentration (TGI) in assay [12], in assay [13], in [18] and in assay [14] was > 100 µM each time.

Consider `COc1ccc2c(c1)CC[C@@H]1[C@@H]2CC[C@]2(C)C(=O)/C(=C/c3ccc(OC)c(OC)c3)C[C@@H]12`, for which the TGI in assay [1], in [15], in assay [2], in [4], in assay [5] and in [6] was > 100 µM throughout. Besides, the TGI in assay [7], in [8], in [9], in assay [17], in assay [11] and in assay [13] was > 100 µM in each case. For the same compound, the concentration for total growth inhibition (TGI) in assay [14] was > 100 µM.

Consider `O=c1cc(-c2ccccc2)[nH]c2cc3c(cc12)OCO3`, for which the concentration for total growth inhibition (TGI) in assay [1] was > 29.8 µM; in assay [15], > 56.5 µM; in assay [2], > 100 µM; in [3], 27.5 µM; in assay [4], > 28.6 µM; in assay [16], 13.4 µM. Also, the concentration for total growth inhibition (TGI) is 22.2 µM in [6]; > 100 µM in assay [7]; > 100 µM in assay [8]; > 80 µM in assay [9]; 17.2 µM in assay [17]; > 100 µM in [10]. In addition, the TGI was 51.3 µM in assay [11]; > 100 µM in [12]; > 100 µM in assay [13]; > 100 µM in [18]; > 82.3 µM in assay [14].

Take `CC12CCC(C(=O)OC1=O)C2(C)C` (centres undefined): the TGI in assay [1], in assay [2], in assay [3], in [4], in [16] and in assay [5] was > 100 µM throughout. Also, the TGI in assay [6], in assay [7], in assay [8], in assay [9], in assay [17] and in assay [10] was > 100 µM in each case. The concentration for total growth inhibition (TGI) in assay [12], in assay [13], in assay [18] and in [14] was > 100 µM throughout.

As to `COC1=C(Br)[C@H](O)[C@@]2(C=C1Br)CC(C(=O)NCCCCCN=C(N)N)=NO2`, the TGI in assay [1], in assay [2], in assay [3], in assay [4], in assay [16] and in assay [5] was > 10 µM in each case. The TGI in assay [6], in [7], in assay [8], in assay [9], in [17] and in [10] was > 10 µM in each case. Also, the TGI in assay [11], in assay [12], in [13], in [18] and in [14] was > 10 µM throughout.

Consider `COc1ccc2c(c1C)C(=O)C(O)(CC=C(C)C)O2` (centres undefined), for which the total growth inhibition concentration (TGI) in [1], in assay [2], in assay [3], in assay [4], in assay [16] and in [5] was > 100 µM in each case. The total growth inhibition concentration (TGI) in assay [6], in [7], in assay [8], in assay [9], in assay [10] and in [11] was > 100 µM each time. The total growth inhibition concentration (TGI) in assay [12], in assay [13], in [18] and in assay [14] was > 100 µM in each case.

`Cc1cn(C2CC(ON3C(=O)c4ccccc4C3=O)C(CO)O2)c(=O)[nH]c1=O` (centres undefined): the TGI in assay [1], in assay [15], in [2], in [3], in [4] and in assay [16] was > 10 µM in each case. The total growth inhibition concentration (TGI) in [5], in [6], in assay [7], in [8], in assay [17] and in assay [12] was > 10 µM each time. Moreover, the TGI in assay [13] and in [14] was > 10 µM throughout.

Source of the values: PubChem BioAssay (NCI).
